Assay results reported in ChEMBL document CHEMBL1145929, “Syntheses and binding studies of new [(aryl)(aryloxy)methyl]piperidine derivatives and related compounds as potential antidepressant drugs with high affinity for serotonin (5-HT) and norepinephrine (NE) transporters” (J Med Chem, 2003).

Columns and labels:
[1] = target: T1, 5-hydroxytryptamine receptor 1A (Rattus norvegicus, UniProt P19327); experiment: Binding affinity against 5-hydroxytryptamine 1A receptor (5-HT1A) by displacement of [3H]8-OH-DPAT from rat hippocampus membranes; format: cell membranes, Membrane
T1 sequence (P19327 whole entry): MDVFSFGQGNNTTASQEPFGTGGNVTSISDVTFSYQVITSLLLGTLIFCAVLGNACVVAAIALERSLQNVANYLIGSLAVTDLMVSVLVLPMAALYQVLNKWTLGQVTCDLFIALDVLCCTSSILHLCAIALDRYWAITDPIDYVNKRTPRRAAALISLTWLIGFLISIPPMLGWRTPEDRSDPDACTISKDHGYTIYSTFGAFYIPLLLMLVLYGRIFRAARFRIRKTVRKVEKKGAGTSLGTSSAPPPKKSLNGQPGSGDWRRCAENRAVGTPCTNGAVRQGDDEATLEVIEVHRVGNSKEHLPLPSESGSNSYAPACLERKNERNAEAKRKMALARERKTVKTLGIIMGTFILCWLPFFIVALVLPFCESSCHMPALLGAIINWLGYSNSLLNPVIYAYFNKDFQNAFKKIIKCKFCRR

[2] = target: 5-hydroxytryptamine receptor 2A (Rattus norvegicus, UniProt P14842); experiment: Binding affinity against 5-hydroxytryptamine 2A receptor by displacement of [3H]-ketanserin from rat prefrontal cerebral cortex mambranes; format: tissue-based, Frontal cortex
5-hydroxytryptamine receptor 2A, sequence (P14842 whole entry): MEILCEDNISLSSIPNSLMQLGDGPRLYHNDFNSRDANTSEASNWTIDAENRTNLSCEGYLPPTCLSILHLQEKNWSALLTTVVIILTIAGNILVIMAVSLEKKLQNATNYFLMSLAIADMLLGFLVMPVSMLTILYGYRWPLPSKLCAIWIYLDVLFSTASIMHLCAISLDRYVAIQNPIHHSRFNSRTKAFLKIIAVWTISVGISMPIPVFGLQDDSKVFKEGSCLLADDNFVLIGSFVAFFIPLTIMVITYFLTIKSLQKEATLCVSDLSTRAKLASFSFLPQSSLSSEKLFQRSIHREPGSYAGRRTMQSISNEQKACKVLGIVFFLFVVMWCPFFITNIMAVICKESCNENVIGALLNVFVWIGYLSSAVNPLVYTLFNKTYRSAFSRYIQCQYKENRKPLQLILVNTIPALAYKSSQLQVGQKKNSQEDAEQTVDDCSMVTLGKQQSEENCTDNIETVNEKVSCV

[3] = target: T2, Sodium-dependent serotonin transporter (Rattus norvegicus, UniProt P31652); experiment: Binding affinity to the serotonin transporter (SERT) measured by displacement of [3H]paroxetine in male wistar rats
T2 sequence (P31652 whole entry): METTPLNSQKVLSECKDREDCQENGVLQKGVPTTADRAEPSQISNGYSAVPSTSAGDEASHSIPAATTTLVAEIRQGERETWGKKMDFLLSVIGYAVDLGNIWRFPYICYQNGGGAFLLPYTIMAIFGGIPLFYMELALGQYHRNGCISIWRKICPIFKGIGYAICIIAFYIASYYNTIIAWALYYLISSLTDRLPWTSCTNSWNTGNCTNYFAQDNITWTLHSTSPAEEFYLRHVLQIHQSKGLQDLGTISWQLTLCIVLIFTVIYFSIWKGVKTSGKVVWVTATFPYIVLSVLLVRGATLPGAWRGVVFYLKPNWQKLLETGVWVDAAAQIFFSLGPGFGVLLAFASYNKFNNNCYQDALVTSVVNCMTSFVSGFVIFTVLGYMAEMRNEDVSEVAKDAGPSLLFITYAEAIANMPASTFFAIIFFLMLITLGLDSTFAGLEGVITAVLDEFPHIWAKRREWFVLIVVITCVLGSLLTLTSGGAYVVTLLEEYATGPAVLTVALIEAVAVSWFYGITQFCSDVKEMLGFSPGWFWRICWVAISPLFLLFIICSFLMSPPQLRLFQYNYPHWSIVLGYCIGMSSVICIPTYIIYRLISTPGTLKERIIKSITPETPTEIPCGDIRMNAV

[4] = target: T2, Sodium-dependent serotonin transporter; experiment: Binding affinity against serotonin transporter (SERT) by displacement of [3H]paroxetine in male wistar rats

IC50 [1] [nM] | IC50 [2] [nM] | Ki [3] [nM] | IC50 [4] [nM] | Structure (SMILES)
> 1000 | > 1000 | 40.6 |  | Fc1ccc(C(Oc2ccccc2)C2CCCNC2)cc1 (stereo not drawn)
> 1000 | > 1000 | 40 |  | N#Cc1ccc(OC(c2ccc(F)cc2)C2CCCNC2)cc1 (stereo not drawn)
> 1000 | > 1000 | 2 |  | Oc1cc(F)cc(OC(c2ccccc2)C2CCNCC2)c1 (stereo not drawn)
> 1000 | > 1000 | 20.6 |  | Ic1ccc(OC(c2ccccc2)C2CCNCC2)cc1 (stereo not drawn)
> 1000 | > 1000 | 3.7 |  | Ic1cccc(OC(c2ccccc2)C2CCNCC2)c1 (stereo not drawn)
> 1000 | > 1000 |  | > 1000 | Fc1cccc(OC(c2ccccc2)C2CCCC2)c1 (stereo not drawn)
> 1000 | > 1000 | 0.9 |  | COc1ccc(OC(c2ccc(F)cc2)C2CCNCC2)cc1 (stereo not drawn)
> 1000 | > 1000 | 16.9 |  | N#Cc1ccc(OC(CC2CCNCC2)c2ccc(F)cc2)cc1 (stereo not drawn)
> 1000 | > 1000 | 20.8 |  | COc1ccc(OC(c2ccc(F)cc2)C2CCCNC2)cc1 (stereo not drawn)
> 1000 | > 1000 | 32.2 |  | Fc1ccc(C(Oc2ccc(Cl)c(Cl)c2)C2CCCNC2)cc1 (stereo not drawn)
> 1000 | > 1000 | 10 |  | Brc1cccc(OC(c2ccccc2)C2CCNCC2)c1 (stereo not drawn)
> 1000 | > 1000 | 4.2 |  | Fc1ccc(C(Oc2ccc3c(c2)OCO3)C2CCCNC2)cc1 (stereo not drawn)
> 1000 | > 1000 |  | 325 | COc1cc2c(cc1OC)CN(CCC(Oc1ccc(C)cc1)c1ccccc1)CC2 (stereo not drawn)
> 1000 | > 1000 | 207 |  | COc1cc2c(cc1OC)CN(CCC(Oc1ccccc1F)c1ccccc1)CC2 (stereo not drawn)
> 1000 | > 1000 | 26.2 |  | Fc1ccc(C(Oc2ccc(C(F)(F)F)cc2)C2CCCNC2)cc1 (stereo not drawn)
> 1000 | > 1000 | 9.9 |  | Clc1ccc(OC(c2ccccc2)C2CCNCC2)cc1Cl (stereo not drawn)
> 1000 | > 1000 |  | > 1000 | Fc1ccccc1OC(CCN1CCc2ccccc2C1)c1ccccc1 (stereo not drawn)
> 1000 | > 1000 |  | > 1000 | COc1ccc(OC(c2ccc(F)cc2)C2CCN(C(C)=O)CC2)cc1 (stereo not drawn)
> 1000 | > 1000 |  | > 1000 | Cc1ccc(OC(CCN2CCc3ccccc3C2)c2ccccc2)cc1 (stereo not drawn)
> 1000 | > 1000 | 9 |  | FC(F)(F)c1cccc(OC(c2ccccc2)C2CCNCC2)c1 (stereo not drawn)

IC50 [1] [nM] | IC50 [2] [nM] | Ki [3] [nM] | IC50 [4] [nM] | Structure (SMILES)
> 1000 | > 1000 | 7.5 |  | Fc1ccc(OC(c2ccc(Cl)cc2)C2CCNCC2)cc1 (stereo not drawn)
> 1000 | > 1000 | 105 |  | N#Cc1ccccc1OC(c1ccccc1)C1CCNCC1 (stereo not drawn)
> 1000 | > 1000 |  | > 1000 | Oc1cc2c(cc1O)CN(CCC(Oc1ccc(Cl)cc1)c1ccccc1)CC2 (stereo not drawn)
> 1000 | > 1000 |  | > 1000 | Oc1cc2c(cc1O)CN(CCC(Oc1ccccc1F)c1ccccc1)CC2 (stereo not drawn)
> 1000 | > 1000 | 5.3 |  | Cc1c(F)cccc1OC(c1ccccc1)C1CCNCC1 (stereo not drawn)
> 1000 | > 1000 | 15.6 |  | Cc1ccc(Cl)cc1OC(c1ccccc1)C1CCNCC1 (stereo not drawn)
> 1000 | > 1000 | 12.2 |  | Cc1c(Cl)cccc1OC(c1ccccc1)C1CCNCC1 (stereo not drawn)
> 1000 | > 1000 |  | > 1000 | c1ccc(-c2ccc(OC(c3ccccc3)C3CCNCC3)cc2)cc1 (stereo not drawn)
> 1000 | > 1000 | 15.5 |  | Oc1c(F)cccc1OC(c1ccccc1)C1CCNCC1 (stereo not drawn)
> 1000 | > 1000 | 13.9 |  | Fc1ccc(C(Oc2ccc(Cl)cc2)C2CCCNC2)cc1 (stereo not drawn)
> 1000 | > 1000 | 19.4 |  | Clc1ccc(C(Oc2ccccc2)C2CCNCC2)cc1 (stereo not drawn)
> 1000 | > 1000 | 23.4 |  | Fc1ccc(OC(c2ccc(F)cc2)C2CCCNC2)cc1 (stereo not drawn)
> 1000 | > 1000 | 47 |  | COc1ccc(OC(CC2CCNCC2)c2ccccc2)cc1 (stereo not drawn)
> 1000 | > 1000 |  | > 1000 | Oc1cc2c(cc1O)CN(CCC(Oc1ccccc1C(F)(F)F)c1ccccc1)CC2 (stereo not drawn)
> 1000 | > 1000 | 124 |  | FC(F)(F)c1ccccc1OC(c1ccccc1)C1CCNCC1 (stereo not drawn)
> 1000 | > 1000 |  | > 1000 | Fc1cccc(OC(c2ccccc2)C2CCOCC2)c1 (stereo not drawn)
> 1000 | > 1000 |  | > 1000 | Cc1ccc(OC(CCN2CCc3cc(O)c(O)cc3C2)c2ccccc2)cc1 (stereo not drawn)
> 1000 | > 1000 | 8.2 |  | Clc1ccccc1OC(c1ccccc1)C1CCNCC1 (stereo not drawn)
> 1000 | > 1000 |  | > 1000 | COc1cc2c(cc1OC)CN(CCC(Oc1ccc(Cl)cc1)c1ccccc1)CC2 (stereo not drawn)
> 1000 | > 1000 | 2.6 |  | N#Cc1cc(F)cc(OC(c2ccccc2)C2CCNCC2)c1 (stereo not drawn)

IC50 [1] [nM] | IC50 [2] [nM] | Ki [3] [nM] | IC50 [4] [nM] | Structure (SMILES)
> 1000 | > 1000 | 0.9 |  | Fc1ccc(OC(c2ccc(F)cc2)C2CCNCC2)cc1 (stereo not drawn)
> 1000 | > 1000 | 21.3 |  | Oc1ccc(OC(c2ccccc2)C2CCNCC2)cc1F (stereo not drawn)
> 1000 | > 1000 | 1.9 |  | COc1cc(F)cc(OC(c2ccccc2)C2CCNCC2)c1 (stereo not drawn)
> 1000 | > 1000 |  | > 1000 | Clc1ccc(OC(CCN2CCc3ccccc3C2)c2ccccc2)cc1 (stereo not drawn)
> 1000 | > 1000 | 22.6 |  | Cc1ccc(OC(c2ccc(F)cc2)C2CCCNC2)cc1 (stereo not drawn)
> 1000 | > 1000 | 134 |  | COc1cc2c(cc1OC)CN(CCC(Oc1ccccc1C(F)(F)F)c1ccccc1)CC2 (stereo not drawn)
> 1000 | > 1000 |  | > 1000 | FC(F)(F)c1ccccc1OC(CCN1CCc2ccccc2C1)c1ccccc1 (stereo not drawn)
> 1000 | > 1000 | 14.1 |  | Cc1ccc(C(Oc2cccc(F)c2)C2CCNCC2)cc1 (stereo not drawn)
> 1000 | > 1000 | 21.5 |  | Fc1ccc(C(Oc2cccc3ccccc23)C2CCCNC2)cc1 (stereo not drawn)
> 1000 | > 1000 |  | > 1000 | CC(=O)N1CCC(C(Oc2ccccc2)c2ccc(F)cc2)CC1 (stereo not drawn)
> 1000 | > 1000 | 2.3 |  | c1ccc(OC(c2ccccc2)C2CCNCC2)cc1 (stereo not drawn)
> 1000 | > 1000 |  |  | Fc1ccc(OC(c2ccccc2)C2CCNCC2)cc1 (single isomer, unassigned; (-))
> 1000 | > 1000 | 8.3 |  | c1ccc(C(Oc2cccc3ccccc23)C2CCNCC2)cc1 (stereo in doubt; 15au)
> 1000 | > 1000 | 1 |  | N#Cc1cccc(OC(c2ccccc2)C2CCNCC2)c1 (stereo in doubt; 15k)
> 1000 | > 1000 |  |  | Clc1cccc(OC(c2ccccc2)C2CCNCC2)c1 (stereo in doubt; 15l)
> 1000 | > 1000 | 1.1 |  | Fc1ccc(OC(c2ccccc2)C2CCNCC2)cc1 (stereo in doubt; 15p)
> 1000 | > 1000 | 2 |  | Brc1ccc(OC(c2ccccc2)C2CCNCC2)cc1 (stereo in doubt; 15r)
> 1000 | > 1000 |  |  | CNCCC(Oc1ccccc1OC)c1ccccc1 (stereo not drawn) [NISOXETINE]
> 1000 |  |  |  | Fc1ccc([C@@H]2CCNC[C@H]2COc2ccc3c(c2)OCO3)cc1 [PAROXETINE]

Structure (SMILES) | IC50 [1] [nM] | IC50 [2] [nM] | Ki [3] [nM] | IC50 [4] [nM]
FC(F)(F)c1ccc(OC(c2ccccc2)C2CCNCC2)cc1 (stereo not drawn) | > 1000 | > 1000 | 17.1 | 
N#Cc1ccc(OC(c2ccccc2)C2CCNCC2)cc1Cl (stereo not drawn) | > 1000 | > 1000 | 3.9 | 
Fc1cc(F)cc(OC(c2ccccc2)C2CCNCC2)c1 (stereo in doubt; 15aj) | > 1000 | > 1000 | 3.4 | 
Fc1ccccc1OC(c1ccccc1)C1CCNCC1 (stereo in doubt; 15b) | > 1000 | > 1000 | 6.3 | 
Fc1cccc(OC(c2ccccc2)C2CCNCC2)c1 (stereo in doubt; 15j) | > 1000 | > 1000 |  | 
O=[N+]([O-])c1ccc(OC(c2ccccc2)C2CCNCC2)cc1 (stereo in doubt; 15m) | > 1000 | > 1000 | 2.4 | 
Fc1cccc(C(Oc2ccccc2F)C2CCNCC2)c1 (stereo in doubt; 15t) | > 1000 | > 1000 | 9.3 | 
Fc1cccc(OC(c2cccc(F)c2)C2CCNCC2)c1 (stereo in doubt; 15u) | > 1000 | > 1000 | 16.1 | 
Fc1cccc(OC(c2cccc(F)c2)C2CCNCC2)c1 (stereo in doubt; (-)-15u) | > 1000 | > 1000 |  | 
COc1ccc(C(CN(C)C)C2(O)CCCCC2)cc1 (stereo not drawn) [VENLAFAXINE] | > 1000 |  |  | 
